pIC50: −log10 of the molar value. Where two headings read alike, the source gives them in different places.
Legend:
MINO = assay: Venetoclax-mediated killing, bioluminescence cytotoxicity assay, 48 hours; type: cell-based
Procedure: (§1) FIGS. 2A-2F illustrate the finding that venetoclax and CART19 as a single agent induces concentration- and dose-dependent tumor killing. Luciferase-expressing cancer cells (5×10^4 cells/well) were co-cultured with either various concentrations of venetoclax or different doses of CART19 for 48 hours and luminescence was used to quantify the tumor killing. After 48 hours, luciferin was added to the cells and luminescence was detected using a luminometer (Biotek Synergy H4). Tumor killing (%) was calculated using the formula: (sample−maximal tumor growth)/(lysis control−maximal tumor growth)×100. […] E:T=ratio of effector to target. EC50: Half-maximal effective concentration. CART19: anti-CD19 CAR T cell.
(§2) Cell lines (MINO, Z-138, MAVER, OCI-Ly18, SU-DHL-4, NALM6, MOLM-14 and KG-1) were engineered to express click beetle green, and cell survival was measured using bioluminescence quantification. D-luciferin potassium salt (Perkin-Elmer) was added to cell cultures (final concentration 15 μg/mL) and incubated at 37° C. for 10 minutes. Bioluminescence signal was detected using a BioTek Synergy H4 imager, and signal was analyzed using BioTek Gen5 software. Percent specific lysis was calculated using a control of target cells without effectors. Cytotoxicity assays were established as previously described (Singh, et al., Cancer Discovery 2020; 10(4):552-67) with the addition of vehicle or venetoclax.
(§3) CART19 cells were co-cultured with either vehicle (DMSO) or venetoclax and cytotoxicity was measured at 48 hours. […] This effect was further confirmed using primary NHL cells (MCL) (FIG. 1D). […] Furthermore, to confirm the importance of the BCL-2 pathway in resistance to CART killing, overexpression of BCL-2 was induced in B-cell lymphoma and leukemia cell lines (MINO, SU-DHL-4, and NALM-6) that lack genetic alterations of BCL-2. BCL-2 overexpression led to a significant reduction of tumor killing by CART cell in all models, in particular the venetoclax medium sensitive model (MINO) (FIGS. 4A-4C).

NALM6 = assay: as above; type: cell-based; details: Homo sapiens, NALM-6, read-out: half-maximal inhibitory concentration (IC50)
Procedure: as §1, §2, §3

OCI-Ly18 = assay: as above; type: cell-based; details: Homo sapiens, read-out: half-maximal inhibitory concentration (IC50)
Procedure: as §1, §2, §3

[1] = patient treated with venetoclax (Jones et al. 2016); cited from earlier work
CART19 = assay: In vitro venetoclax CART cell toxicity assay; type: cell-based, human; details: for pIC50: Homo sapiens
Procedure: CART cells were combined with target cancer cells at an E:T ratio of 0.25:1, and co-cultures were evaluated for absolute count of T cells and cancer cells by flow cytometry using CountBright absolute counting beads (ThermoFisher) every three days. Cultures were maintained at a concentration of 1×10^6 total cells/mL. To monitor their differentiation status, CART cells were harvested on day 0, 9, and 18. Next, CART cells were stained with anti-CCR7 and anti-CD45RA antibodies for flow cytometric analysis. CART cells were re-stimulated by PMA/Ionomycin on day 18 after initial stimulation in order to evaluate the anti-tumor activity of long-survived CART cells.
To investigate this hypothesis, the expansion and persistence of CART19 cells in the peripheral blood of NSG mice treated with CART19 plus venetoclax or CART19 alone was analyzed using flow cytometry. […] To test whether prolonged exposure to venetoclax leads to CART cell toxicity, an in vitro venetoclax toxicity assay was performed using CART cells manufactured from 8 different T cell donors. […] Of note, the level of toxicity to CART cells varied among the different T cell donors, likely due to different apoptotic priming statuses at baseline. […] In order to discern whether the reduced survival was due to increased apoptosis or reduction of proliferation, the caspase 3/7 activity in CART19 was assessed in the presence or absence of venetoclax. […] Overall, these studies indicate that the higher doses of venetoclax required to suppress neoplasms with venetoclax resistance can cause apoptosis in CART19 cells. However, the BCL-2 pathway is a critical node for cancer resistance to CART immunotherapy and venetoclax can be toxic to CART cells. Thus, a different approach to overcome the limitation of targeting BCL-2 combined with CART immunotherapy was needed.
Correct expression of the transgenes in target cells was confirmed by intracellular staining for CAR19 and BCL-2 using flow cytometry (FIG. 10B). […] Additionally, venetoclax CART cell toxicity assays were performed to evaluate whether the mutant BCL-2 could provide resistance to venetoclax.

With CC1(C)CCC(CN2CCN(c3ccc(C(=O)NS(=O)(=O)c4ccc(NCC5CCOCC5)c([N+](=O)[O-])c4)c(Oc4cnc5[nH]ccc5c4)c3)CC2)=C(c2ccc(Cl)cc2)C1 [venetoclax] as the compound, how does the pIC50 (MINO; Homo sapiens, MINO, 48 hours, read-out: half-maximal inhibitory concentration (IC50)) read?
Its pIC50 is 7.17.

What about the “IC50 for MINO relative to OCI-Ly18” value (MINO; MINO vs OCI-Ly18) of the same compound?
The value was 5 fold.

And the pIC50 (NALM6)?
Its pIC50 is 5.89.

What about the pIC50 (OCI-Ly18) of the same compound?
Its pIC50 is 7.73.

And the “physiological concentration in a patient” value [1]?
The value was “around 2.3 M”.

What about the “Survival of CART19 cells” value (CART19; 5 days of co-culture, CART cells from 8 donors) of the same compound?
Its value is “significant reduction in the survival of CART19 cells”.

And the pIC50 (CART19; healthy donor-derived CAR T cell, read-out: average value of the IC50 concentration)?
Its pIC50 is 6.22.

And the pIC50 (CART19; venetoclax on CART19, long-term in vitro assay, n=3 donors, read-out: average IC50 value (CART cell survival))?
The pIC50 was 6.88.

What about the “Caspase 3/7 activation in CART cells” value (CART19; venetoclax present vs absent) of the same compound?
Its value is “significant caspase 3/7 activation in CART cells”.

— patent publication US20240335539A1, “MODULATION OF BCL-2 TO ENHANCE CHIMERIC ANTIGEN RECEPTOR CANCER IMMUNOTHERAPY EFFICACY” (The Trustees of the University of Pennsylvania, priority 2021, published 2024)
